# Measured values: patent US8956641B2, “Alpha adrenergic receptor agonists for treatment of inflammatory diseases” (Warsaw Orthopedic, Inc., priority 2008, dated 2015)
# System: Rat Chronic Constriction Injury Model (neuropathic pain)
# Conditions: clonidine subcutaneously 0.02 mg/kg/day; FIG. 4
# Excerpt: The inventors evaluated the efficacy of a five Month Clonidine/Polymer Drug Depot in the Rat Chronic Constriction Injury Model. The animal model was the Bennett Model (Wistar rat). The purpose: To determine whether a five month polymer clonidine-eluting depot can improve pain associated behavioral responses in a rat model of neuropathic pain.
# Experimental Design: Four loose chromic gut ligatures, 1 mm apart, were tied around the common sciatic nerve at mid-thigh. Each animal received treatment of test or control article-according to the dosing described in Table 5.
# The inventors have conducted the present study for a period of 64 days and have employed the following two tests: (1) the Hargreaves test; and (2) the von Frey test. The Hargreaves Tests of Thermal Hyperalgesia were conducted on days 7, 14, 21, 28, 35, 42, 49, 56 and 63. The von Frey monofilament test of mechanical allodynia (performed the day following Thermal testing) were conducted on days-8, 15, 22, 29, 36, 43, 50, 57 and 64.
structure (smiles),measurement,value
"Clc1cccc(Cl)c1N=C1NCCN1 [clonidine, 2,6-dichloro-N2-imidazolidinyldenebenzenamine]",pain behavioral response (percentage of baseline) for mechanical allodynia compared to unloaded polymer depots,reduced the behavioral response
